Each structure is given as a SMILES string. Values joined by “and” are separate entries in the source; they are usually repeats but may differ in a detail not shown here. Identical values can stand only once. Toxic doses and inconclusive results are not listed.

The test system of the experiment is BDF1 mice, P388 leukemia (terephthalanilide-resistant), survival T/C. As to the kind of experiment: NCI In Vivo Anticancer Drug Screen. Data for tumor model P388 Leukemia resistant to A Terephthalanilide; NSC 38280 (intraperitoneal) in B6D2F1 (BDF1) mice. As to conditions: endpoint: median survival time, higher = longer survival. Here is the method:
The antitumor activity of compounds was measured in mice bearing transplantable tumors. Survival or tumor size were measured and the results are expressed as the measurement made in the treated group (T) divided by the measurement made in the vehicle treated control group (C). The tumor model used in this assay is P388 Leukemia resistant to A Terephthalanilide; NSC 38280 (intraperitoneal) in B6D2F1 (BDF1) mice

Setting [1] is: dose: 8.0 mg/kg/injection, schedule: Q01DX010 (ip), vehicle: saline.
[2] abbreviates: dose: 27.0 mg/kg/injection, schedule: Q01DX010 (ip), vehicle: saline.
[3] abbreviates: dose: 40.0 mg/kg/injection, schedule: Q01DX010 (ip), vehicle: saline.
Where [4] appears, read: dose: 90.0 mg/kg/injection, schedule: Q01DX010 (ip), vehicle: saline.
Where [5] appears, read: dose: 60.0 mg/kg/injection, schedule: Q01DX010 (ip), vehicle: saline.
[6] abbreviates: dose: 0.5 mg/kg/injection, schedule: Q01DX010 (ip), vehicle: saline.
Where [7] appears, read: dose: 1.0 mg/kg/injection, schedule: Q01DX010 (ip), vehicle: saline.
Setting [8] is: dose: 2.0 mg/kg/injection, schedule: Q01DX010 (ip), vehicle: saline.
Where [9] appears, read: dose: 3.13 mg/kg/injection, schedule: Q01DX010 (ip), vehicle: saline.
Where [10] appears, read: dose: 6.25 mg/kg/injection, schedule: Q01DX010 (ip), vehicle: saline.
Setting [11] is: dose: 12.5 mg/kg/injection, schedule: Q01DX010 (ip), vehicle: saline.
The mark [12] stands for this setting: dose: 25.0 mg/kg/injection, schedule: Q01DX010 (ip), vehicle: saline.
The mark [13] stands for this setting: dose: 6.0 mg/kg/injection, schedule: Q01DX010 (ip), vehicle: saline.
The mark [14] stands for this setting: dose: 12.0 mg/kg/injection, schedule: Q01DX010 (ip), vehicle: saline.
Setting [15] is: dose: 18.0 mg/kg/injection, schedule: Q01DX010 (ip), vehicle: saline.

Consider `O=c1cnn(C2OC(CO)C(O)C2O)c(=O)[nH]1` (stereo unspecified), for which the T/C is 120 % of control (dose: 800.0 mg/kg/injection, schedule: Q01DX010 (ip), vehicle: saline) and 110 % of control (dose: 1600.0 mg/kg/injection, schedule: Q01DX010 (ip), vehicle: saline).

`O=C(Nc1ccc(C2=NCCN2)cc1)c1cccc(C(=O)Nc2ccc(C3=NCCN3)cc2)c1`: the T/C is 112 % of control under setting [1] and 150 % of control (dose: 64.0 mg/kg/injection, schedule: Q01DX010 (ip), vehicle: saline).

Consider `O=C(Nc1cccc(NC(=O)Nc2cccc(C3=NCCN3)c2)c1)Nc1cccc(C2=NCCN2)c1`, for which the T/C runs as follows: under setting [2], 111 % of control; under setting [3], 111 % of control; (dose: 66.0 mg/kg/injection, schedule: Q01DX010 (ip), vehicle: saline) 111 % of control; under setting [4], 111 % of control.

`Nc1nc2n[nH]nc2c(=O)[nH]1`: the T/C reads like this: (dose: 25.0 mg/kg/injection, schedule: Q01DX010 (ip), vehicle: alkali diluted with saline) 162 % of control; (dose: 50.0 mg/kg/injection, schedule: Q01DX010 (ip), vehicle: alkali diluted with saline) 162 % of control; (dose: 100.0 mg/kg/injection, schedule: Q01DX010 (ip), vehicle: alkali diluted with saline) 175 % of control; (dose: 200.0 mg/kg/injection, schedule: Q01DX010 (ip), vehicle: alkali diluted with saline) 175 % of control.

`CN(N=O)C(=O)NC(C=O)C(O)C(O)C(O)CO` (stereo unspecified): the T/C was 109 % of control under setting [2], 113 % of control under setting [3], 154 % of control under setting [5] and 113 % of control under setting [4].

As to `CS(=O)(=O)OCCN(CCOS(C)(=O)=O)c1ccc(N=O)cc1`, the T/C under setting [6] was 100 % of control; the T/C under setting [7] was 109 % of control; the T/C under setting [8] is 109 % of control and 113 % of control.

On to `CCCNc1ncnc2[nH]ncc12`, for which the T/C was 95 % of control and 105 % of control under setting [9]; 100 % of control under setting [10]; 90 % of control and 94 % of control under setting [11]; 110 % of control under setting [12]; 111 % of control (dose: 250.0 mg/kg/injection, schedule: Q01DX010 (ip), vehicle: saline).

On to `N#[N+]c1cnc([O-])[nH]c1=O`, for which the T/C by setting is: (dose: 1.25 mg/kg/injection, schedule: Q01DX010 (ip), vehicle: saline) 113 % of control; (dose: 2.5 mg/kg/injection, schedule: Q01DX010 (ip), vehicle: saline) 113 % of control; (dose: 5.0 mg/kg/injection, schedule: Q01DX010 (ip), vehicle: saline) 95 % of control and 122 % of control.

In the case of `CCn1cnc2c(=S)nc[nH]c21`, the T/C (dose: 15.6 mg/kg/injection, schedule: Q01DX010 (ip), vehicle: saline) was 100 % of control and 105 % of control; the T/C (dose: 31.3 mg/kg/injection, schedule: Q01DX010 (ip), vehicle: saline) is 105 % of control and 110 % of control; the T/C (dose: 62.5 mg/kg/injection, schedule: Q01DX010 (ip), vehicle: saline) is 94 % of control and 100 % of control; the T/C (dose: 125.0 mg/kg/injection, schedule: Q01DX010 (ip), vehicle: saline) is 110 % of control.

Turning to `O=C(O)CCCc1ccc(N(CCCl)CCCl)cc1`, the T/C was 100 % of control and 105 % of control under setting [9]; 110 % of control and 116 % of control under setting [10]; 105 % of control and 120 % of control under setting [11].

As to `O=C(Nc1ccc(C2=NCCN2)cc1)c1cc(Cl)cc(C(=O)Nc2ccc(C3=NCCN3)cc2)c1`, the T/C (dose: 140.0 mg/kg/injection, schedule: Q01DX010 (ip), vehicle: saline) is 100 % of control; the T/C (dose: 210.0 mg/kg/injection, schedule: Q01DX010 (ip), vehicle: saline) was 100 % of control; the T/C (dose: 315.0 mg/kg/injection, schedule: Q01DX010 (ip), vehicle: saline) was 100 % of control; the T/C (dose: 473.0 mg/kg/injection, schedule: Q01DX010 (ip), vehicle: saline) is 94 % of control.

Turning to `O=C(Nc1ccc(C2=NCCN2)cc1)c1ccc(C(=O)Nc2ccc(C3=NCCN3)cc2)c([N+](=O)[O-])c1`, the T/C by setting is: under setting [13], 110 % of control and 122 % of control; under setting [1], 110 % of control and 122 % of control; under setting [14], 122 % of control; under setting [15], 88 % of control and 105 % of control.

On to `Cn1c(N)nc2nc[nH]c2c1=S`, for which the T/C by setting is: (dose: 20.0 mg/kg/injection, schedule: Q01DX010 (ip), vehicle: saline) 100 % of control; under setting [3], 100 % of control; (dose: 80.0 mg/kg/injection, schedule: Q01DX010 (ip), vehicle: saline) 95 % of control; (dose: 160.0 mg/kg/injection, schedule: Q01DX010 (ip), vehicle: saline) 90 % of control.

On to `Nc1nc(N)c2nc(CNc3ccc(C(=O)NC(CCC(=O)O)C(=O)O)cc3)cnc2n1` (stereo unspecified), for which the T/C was 112 % of control (dose: 25.0 micrograms/kg/injection, schedule: Q01DX010 (ip), vehicle: other); 112 % of control (dose: 50.0 micrograms/kg/injection, schedule: Q01DX010 (ip), vehicle: other); 150 % of control (dose: 200.0 micrograms/kg/injection, schedule: Q01DX010 (ip), vehicle: other).

On to `O=C(Nc1ccc(C2=NCCN2)cc1)c1ccc(NC(=O)c2ccc(C3=NCCN3)cc2)cc1`, for which the T/C under setting [15] was 100 % of control, the T/C under setting [2] was 100 % of control, the T/C under setting [3] was 100 % of control and the T/C under setting [5] is 100 % of control.

Take `CN=C(NC)c1ccc(NC(=O)c2ccc(C(=O)Nc3ccc(C(=NC)NC)cc3)c(Cl)c2)cc1`: the T/C was 105 % of control under setting [15] and 100 % of control under setting [2].

With `Nc1ncnc2[nH]ncc12`, the T/C by setting is: (dose: 1.5 mg/kg/injection, schedule: Q01DX010 (ip), vehicle: saline) 90 % of control and 95 % of control; (dose: 3.0 mg/kg/injection, schedule: Q01DX010 (ip), vehicle: saline) 90 % of control; under setting [13], 90 % of control and 95 % of control; under setting [14], 90 % of control and 100 % of control.

Consider `NC(Cc1ccc(N(CCCl)CCCl)cc1)C(=O)O` (stereo unspecified), for which the T/C (dose: 2.0 mg/kg/injection, schedule: Q01DX010 (ip), vehicle: other) was 163 % of control and the T/C (dose: 4.0 mg/kg/injection, schedule: Q01DX010 (ip), vehicle: other) is 100 % of control.

In the case of `O=C(Nc1ccc(NC2=NCCN2)cc1)c1ccc(C(=O)Nc2ccc(NC3=NCCN3)cc2)cc1`, the T/C was 100 % of control and 106 % of control under setting [8]; 150 % of control (dose: 4.0 mg/kg/injection, schedule: Q01DX010 (ip), vehicle: saline); 181 % of control under setting [1].

As for `CS(=O)(=O)OCCCCOS(C)(=O)=O`, the T/C is, setting by setting: under setting [10], 87 % of control and 100 % of control; under setting [11], 100 % of control and 106 % of control; under setting [12], 87 % of control and 100 % of control; (dose: 50.0 mg/kg/injection, schedule: Q01DX010 (ip), vehicle: saline) 106 % of control.

As to `O=P1(N(CCCl)CCCl)NCCCO1` (stereo unspecified), the T/C is 100 % of control and 109 % of control (dose: 11.3 mg/kg/injection, schedule: Q01DX005 (ip), vehicle: saline); 111 % of control (dose: 11.3 mg/kg/injection, schedule: Q01DX010 (ip), vehicle: saline); 118 % of control and 122 % of control (dose: 22.5 mg/kg/injection, schedule: Q01DX005 (ip), vehicle: saline); 154 % of control (dose: 45.0 mg/kg/injection, schedule: Q01DX005 (ip), vehicle: saline); 183 % of control (dose: 45.0 mg/kg/injection, schedule: Q01DX010 (ip), vehicle: saline); 272 % of control (dose: 90.0 mg/kg/injection, schedule: Q01DX005 (ip), vehicle: saline). For the same molecule, the T/C is 105 % of control under setting [4] and 88 % of control (dose: 180.0 mg/kg/injection, schedule: Q01DX010 (ip), vehicle: saline).

For `N#CCSc1ncnc2nc[nH]c12`, the T/C by setting is: (dose: 15.0 mg/kg/injection, schedule: Q01DX010 (ip), vehicle: saline) 100 % of control; (dose: 30.0 mg/kg/injection, schedule: Q01DX010 (ip), vehicle: saline) 100 % of control; under setting [5], 105 % of control and 109 % of control; (dose: 120.0 mg/kg/injection, schedule: Q01DX010 (ip), vehicle: saline) 100 % of control.

With `C[n+]1c2ccccc2nc2c(N)cc(N)cc21`, the T/C under setting [14] is 100 % of control, the T/C under setting [15] is 100 % of control and the T/C under setting [2] was 91 % of control.

As to `NC(=O)N(CCCl)N=O`, the T/C is 172 % of control under setting [6], 172 % of control under setting [7] and 109 % of control under setting [8].

The values are drawn from PubChem BioAssay AID338 (DTP/NCI, 2004).
